# Measurements: US20240360178A1, “MACROCYCLIC IMMUNOMODULATORS” (Bristol-Myers Squibb Company, priority 2021, published 2024)
# pIC50: −log10 of the molar value. Starred links: 1 amine or outer side, 2 acyl side, 3 side chain; linkers in the order of their positions; H or OH if unused. Positions of bridges follow the written chain, without caps; N, C: chain ends. Non-standard residues stand in square brackets, D forms with d. Residues, ends and D or L forms follow the SMILES beside them. ξ: configuration not given here. *: point of attachment. Phe(4-COOH) = N[C@@H](Cc1ccc(C(=O)O)cc1)C(=O)O; Bip = N[C@@H](Cc1ccc(-c2ccccc2)cc1)C(=O)O; dPro(4S-NH2) = N[C@@H]1CN[C@@H](C(=O)O)C1; Phe(3-Me) = Cc1cccc(C[C@H](N)C(=O)O)c1; NMeY = CN[C@@H](Cc1ccc(O)cc1)C(=O)O; Val(3-OH) = CC(C)(O)[C@H](N)C(=O)O; NMeF = CN[C@@H](Cc1ccccc1)C(=O)O; X2 = O=C([C@H]1COCCN1[*:1])[*:2]; 4Pal = N[C@@H](Cc1ccncc1)C(=O)O; Cha = N[C@@H](CC1CCCCC1)C(=O)O; Tle = CC(C)(C)[C@H](N)C(=O)O; Carboxymethyl = O=C(O)C*; NMeA = CN[C@@H](C)C(=O)O; Orn = NCCC[C@H](N)C(=O)O; Dab = NCC[C@H](N)C(=O)O; Abu = CC[C@H](N)C(=O)O; Dap = NC[C@H](N)C(=O)O; ξV = CC(C)C(N)C(=O)O; Sar = CNCC(=O)O
# Biological target: T1, human PD-1 (Jurkat-PD-1 cells) / PE-labeled human PD-L1-Ig (Homo sapiens, UniProt Q15116)
# T1 construct: expressed in transfected cells; host or cells: Jurkat cell line over-expressing human PD-1
# T1 sequence (Q15116 25-288): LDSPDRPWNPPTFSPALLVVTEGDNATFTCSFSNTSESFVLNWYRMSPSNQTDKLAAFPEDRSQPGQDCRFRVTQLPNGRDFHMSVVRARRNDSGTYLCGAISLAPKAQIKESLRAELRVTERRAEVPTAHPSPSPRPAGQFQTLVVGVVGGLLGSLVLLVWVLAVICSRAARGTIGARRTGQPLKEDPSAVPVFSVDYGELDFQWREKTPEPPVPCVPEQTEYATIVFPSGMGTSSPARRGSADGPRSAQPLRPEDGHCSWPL
# Test: Jurkat-PD-1 Cell Binding High-Content Screening Assay (CBA); Jurkat hPD1-PDL1 assay
# Conditions: Jurkat cell line over-expressing human PD-1; PE-labeled PD-L1-Ig 20 nM final; compound incubated 2 hours at 37° C.; read-out: Jurkat HPD1-PDL1 IC50
# Outline: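 Read-out is high-content imaging of PE fluorescence on PD-1-over-expressing Jurkat cells. Cells are first exposed to compound for 2 hours at 37° C in serum-containing DMEM, after which PE-labeled PD-L1-Ig is added at 20 nM final.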
row,SMILES,pIC50
1,CC(C)C[C@@H]1NC(=O)CSC[C@@H](C(=O)N[C@@H](C)C(N)=O)NC(=O)[C@H](CO)NC(=O)[C@H](C(C)C)NC(=O)[C@H](CC(C)C)NC(=O)[C@H](CCN)NC(=O)[C@H](Cc2ccccc2)N(C)C(=O)[C@H](C)N(C)C(=O)[C@H](CCCNC(=N)N)NC(=O)[C@H](Cc2ccc(-c3ccccc3)cc2)NC(=O)[C@H](C(C)C)NC(=O)[C@H](Cc2c[nH]c3ccccc23)NC(=O)[C@H](CC(=O)O)NC(=O)[C@H](Cc2ccc(O)cc2)NC1=O [Example 1305] ({CH2CO}-LYDWV[Bip]R[NMeA][NMeF][Dab]LVSCA-NH2; thioether N-14),7.22
2,CC(C)C[C@@H]1NC(=O)[C@H](CCCNC(=N)N)NC(=O)[C@H](Cc2ccccc2)N(C)C(=O)[C@H](CN)NC(=O)[C@H](CCCNC(=N)N)NC(=O)[C@H](Cc2ccc(-c3ccccc3)cc2)NC(=O)[C@H](C(C)C)NC(=O)[C@H](Cc2c[nH]c3ccccc23)NC(=O)[C@H](CC(=O)O)NC(=O)[C@H](Cc2ccc(O)cc2)NC(=O)[C@H](CC(N)=O)NC(=O)CSC[C@@H](C(=O)N[C@@H](C)C(N)=O)NC(=O)[C@H]([C@@H](C)O)NC(=O)[C@H](C(C)C)NC1=O [Example 1364] ({CH2CO}-NYDWV[Bip]R[Dap][NMeF]RLVTCA-NH2; thioether N-14),6.23
3,CC(C)C[C@@H]1NC(=O)[C@H](Cc2c[nH]c3ccccc23)NC(=O)[C@H](CC(=O)O)NC(=O)[C@H](Cc2ccc(O)cc2)NC(=O)[C@H](Cc2ccccc2)NC(=O)CSC[C@@H](C(=O)N[C@@H](C)C(N)=O)NC(=O)[C@H](CO)NC(=O)[C@H](C(C)C)NC(=O)[C@H](CC(C)C)NC(=O)[C@H](CCN)NC(=O)[C@H]2CCCN2C(=O)[C@H](CCCN)NC(=O)[C@H](C(C)C)NC(=O)[C@H](Cc2ccc(-c3ccccc3)cc2)NC1=O [Example 1421] ({CH2CO}-FYDWL[Bip]V[Orn][dP][Dab]LVSCA-NH2; thioether N-14),7.22
4,CC(C)C1NC(=O)[C@H](Cc2c[nH]c3ccccc23)NC(=O)[C@H](CC(=O)O)NC(=O)[C@H](Cc2ccncc2)NC(=O)[C@H](CN)NC(=O)CSC[C@@H](C(=O)N[C@@H](C)C(N)=O)NC(=O)[C@H]([C@@H](C)O)NC(=O)[C@H](C(C)C)NC(=O)[C@H](CC2CCCCC2)NC(=O)[C@H](CCN)NC(=O)[C@H](Cc2ccc(O)cc2)N(C)C(=O)[C@H](CCCN)NC(=O)[C@H](CCC(=O)O)NC(=O)[C@H](Cc2ccc(-c3ccccc3)cc2)NC1=O (stereo partly drawn) [Example 1451] ({CH2CO}-[Dap][4Pal]DW[ξV][Bip]E[Orn][NMeY][Dab][Cha]VTCA-NH2; thioether N-14),6.28
5,CC(C)C[C@@H]1NC(=O)[C@H](CCCNC(=N)N)NC(=O)[C@H](Cc2ccccc2)N(C)C(=O)[C@H](C)N(C)C(=O)[C@H](CCCNC(=N)N)NC(=O)[C@H](Cc2ccc(-c3ccccc3)cc2)NC(=O)[C@H]([C@@H](C)O)NC(=O)[C@H](Cc2c[nH]c3ccccc23)NC(=O)[C@H](CC(=O)O)NC(=O)[C@H](Cc2ccc(O)cc2)NC(=O)[C@H](Cc2ccccc2)NC(=O)CSC[C@@H](C(=O)NCC(N)=O)NC(=O)[C@H](CO)NC(=O)[C@H](C(C)C)NC1=O [Example 1283] ({CH2CO}-FYDWT[Bip]R[NMeA][NMeF]RLVSCG-NH2; thioether N-14),6.15
6,CC[C@@H]1NC(=O)[C@H](Cc2c[nH]c3ccccc23)NC(=O)[C@H](CC(=O)O)NC(=O)[C@H](Cc2ccc(O)cc2)NC(=O)[C@H](Cc2ccccc2)NC(=O)CSC[C@@H](C(=O)NCC(N)=O)NC(=O)[C@H](CO)NC(=O)[C@H](C(C)C)NC(=O)[C@H](CC(C)C)NC(=O)[C@H](CCCNC(=N)N)NC(=O)[C@H](Cc2ccccc2)N(C)C(=O)[C@H](C)N(C)C(=O)[C@H](CCCNC(=N)N)NC(=O)[C@H](Cc2ccc(-c3ccccc3)cc2)NC1=O [Example 1336] ({CH2CO}-FYDW[Abu][Bip]R[NMeA][NMeF]RLVSCG-NH2; thioether N-14),6.39
7,CC(C)C[C@@H]1NC(=O)[C@H](Cc2c[nH]c3ccccc23)NC(=O)[C@H](CC(=O)O)NC(=O)[C@H](Cc2ccc(O)cc2)NC(=O)[C@H](Cc2ccccc2)NC(=O)CSC[C@@H](C(=O)N[C@@H](C)C(N)=O)NC(=O)[C@H](CO)NC(=O)[C@H](C(C)C)NC(=O)[C@H](CC(C)C)NC(=O)[C@H](CC(N)=O)NC(=O)[C@H]2C[C@H](N)CN2C(=O)[C@H]2CCCN2C(=O)[C@H](C(C)C)NC(=O)[C@H](Cc2ccc(-c3ccccc3)cc2)NC1=O [Example 1175] ({CH2CO}-FYDWL[Bip]V[dP][dPro(4S-NH2)]NLVSCA-NH2; thioether N-14),6.30
8,Cc1cccc(C[C@@H]2NC(=O)[C@H](CC(=O)O)NC(=O)[C@H](Cc3ccc(OCC(=O)O)cc3)NC(=O)[C@H](Cc3ccncc3)NC(=O)CSC[C@@H](C(=O)N[C@@H](CCN)C(N)=O)NC(=O)[C@H](CO)NC(=O)[C@H](C(C)(C)O)NC(=O)[C@H](CC3CCCCC3)NC(=O)[C@H](CCN)NC(=O)[C@H]3CCCN3C(=O)[C@H](C)N(C)C(=O)[C@H](Cc3ccc(OCC(=O)O)cc3)NC(=O)[C@H](Cc3ccc(-c4ccccc4)cc3)NC(=O)[C@H](Cc3ccc(C(=O)O)cc3)NC2=O)c1 [Example 1178] ({CH2CO}-[4Pal]Y(Carboxymethyl)D[Phe(3-Me)][Phe(4-COOH)][Bip]Y(Carboxymethyl)[NMeA][dP][Dab][Cha][Val(3-OH)]SC[Dab]-NH2; thioether N-14),7.15
9,CC(C)C[C@@H]1NC(=O)[C@H](Cc2c[nH]c3ccccc23)NC(=O)[C@H](CC(=O)O)NC(=O)[C@H](Cc2ccc(C(=O)O)cc2)NC(=O)[C@H](CN)NC(=O)CSC[C@@H](C(=O)N[C@@H](C)C(N)=O)NC(=O)[C@H](CO)NC(=O)[C@H](C(C)C)NC(=O)[C@H](CC(C)C)NC(=O)[C@H](CC(N)=O)NC(=O)[C@H]2CCCN2C(=O)[C@H](C)N(C)C(=O)[C@H](C(C)C)NC(=O)[C@H](Cc2ccc(-c3ccccc3)cc2)NC1=O [Example 1390] ({CH2CO}-[Dap][Phe(4-COOH)]DWL[Bip]V[NMeA][dP]NLVSCA-NH2; thioether N-14),7.70
10,CC(C)C[C@@H]1NC(=O)[C@H](CCCN)NC(=O)[C@H](Cc2ccccc2)N(C)C(=O)[C@H](C)N(C)C(=O)[C@H](CCCNC(=N)N)NC(=O)[C@H](Cc2ccc(-c3ccccc3)cc2)NC(=O)[C@H](C(C)C)NC(=O)[C@H](Cc2c[nH]c3ccccc23)NC(=O)[C@H](CC(=O)O)NC(=O)[C@H](Cc2ccc(O)cc2)NC(=O)[C@H](CC(N)=O)NC(=O)CSC[C@@H](C(=O)N[C@@H](CO)C(N)=O)NC(=O)[C@H]([C@@H](C)O)NC(=O)[C@H](C(C)C)NC1=O [Example 1353] ({CH2CO}-NYDWV[Bip]R[NMeA][NMeF][Orn]LVTCS-NH2; thioether N-14),7.05
11,CC(C)C[C@@H]1NC(=O)[C@H](CCCNC(=N)N)NC(=O)[C@H](Cc2ccccc2)N(C)C(=O)[C@H](C)N(C)C(=O)[C@H](CCCNC(=N)N)NC(=O)[C@H](Cc2ccc(-c3ccccc3)cc2)NC(=O)[C@H](C(C)C)NC(=O)[C@H](Cc2c[nH]c3ccccc23)NC(=O)[C@H](CC(=O)O)NC(=O)[C@H](Cc2ccc(O)cc2)NC(=O)[C@H](Cc2ccccc2)NC(=O)CSC[C@@H](C(=O)NCC(N)=O)NC(=O)[C@H](CO)NC(=O)[C@H](C(C)(C)C)NC1=O [Example 1143] ({CH2CO}-FYDWV[Bip]R[NMeA][NMeF]RL[Tle]SCG-NH2; thioether N-14),6.21
12,CC(C)C[C@@H]1NC(=O)[C@H](Cc2c[nH]c3ccccc23)NC(=O)[C@H](CC(=O)O)NC(=O)[C@H](Cc2ccc(O)cc2)NC(=O)[C@H](Cc2ccccc2)NC(=O)CSC[C@@H](C(=O)N[C@@H](C)C(N)=O)NC(=O)[C@H](CO)NC(=O)[C@H](C(C)C)NC(=O)[C@H](CC(C)C)NC(=O)[C@H](CCN)NC(=O)[C@H]2CCCN2C(=O)[C@H](CN)NC(=O)[C@H](C(C)C)NC(=O)[C@H](Cc2ccc(-c3ccccc3)cc2)NC1=O [Example 1408] ({CH2CO}-FYDWL[Bip]V[Dap][dP][Dab]LVSCA-NH2; thioether N-14),7.05
13,CC(C)C[C@@H]1NC(=O)[C@H](Cc2c[nH]c3ccccc23)NC(=O)[C@H](CC(=O)O)NC(=O)[C@H](Cc2ccc(O)cc2)NC(=O)[C@H](Cc2ccccc2)NC(=O)CSC[C@@H](C(=O)N[C@@H](C)C(N)=O)NC(=O)[C@H](CO)NC(=O)[C@H](C(C)C)NC(=O)[C@H](CC(C)C)NC(=O)[C@H](CCCCN)NC(=O)CN(C)C(=O)[C@H](C)N(C)C(=O)[C@H](C(C)C)NC(=O)[C@H](Cc2ccc(-c3ccccc3)cc2)NC1=O [Example 1099] ({CH2CO}-FYDWL[Bip]V[NMeA][Sar]KLVSCA-NH2; thioether N-14),6.51
14,CC(C)C[C@@H]1NC(=O)[C@H](Cc2c[nH]c3ccccc23)NC(=O)[C@H](CC(=O)O)NC(=O)[C@H](Cc2cnc[nH]2)NC(=O)[C@H](Cc2ccccc2)NC(=O)CSC[C@@H](C(=O)NCC(N)=O)NC(=O)[C@H](CO)NC(=O)[C@H](C(C)C)NC(=O)[C@H](CC(C)C)NC(=O)[C@H](CC(N)=O)NC(=O)CN(C)C(=O)[C@H](C)N(C)C(=O)[C@H](C(C)C)NC(=O)[C@H](Cc2ccc(-c3ccccc3)cc2)NC1=O [Example 1153] ({CH2CO}-FHDWL[Bip]V[NMeA][Sar]NLVSCG-NH2; thioether N-14),6.12
15,CC(C)C[C@@H]1NC(=O)[C@H](Cc2c[nH]c3ccccc23)NC(=O)[C@H](CC(=O)O)NC(=O)[C@H](Cc2ccc(O)cc2)NC(=O)[C@H](Cc2ccccc2)NC(=O)CSC[C@@H](C(=O)N[C@@H](C)C(N)=O)NC(=O)[C@H](CO)NC(=O)[C@H](C(C)C)NC(=O)[C@H](CC(C)C)NC(=O)[C@H](CC(N)=O)NC(=O)[C@H]2COCCN2C(=O)[C@H](C)N(C)C(=O)[C@H](C(C)C)NC(=O)[C@H](Cc2ccc(-c3ccccc3)cc2)NC1=O [Example 1044] ({CH2CO}-FYDWL[Bip]V[NMeA][X2]NLVSCA-NH2; thioether N-14),7.10
